Peptide text beside a SMILES is read from it.
Experiments:
[1] = system: normal donor CD19+ B cells; type: cell-based, human
Experimental: (§1) Target cells were labeled with 50 μCi of ^111Indium-labeled oxyquinoline (Amersham Health, Silver Spring, Md.) for 15 minutes at room temperature. Target cells in medium containing 10% human AB serum were plated at 3×10^3 cells per well, in 96-well rounded-bottom culture plates. Labeled C1R-A2 or T2 cells were incubated with peptides at the indicated concentrations for 60 minutes at 37° C. in 5% CO2 before the addition of effector cells. No peptide was added when carcinoma cells or CD19+ B cells were used as targets. CD8+ T cells negatively isolated from T-cell cultures were used as effector cells, at various effector-to-target (E:T) cell ratios. […] Supernatants were harvested and the ^111In released was measured by gamma counting. Spontaneous release was determined by incubating the target cells with medium alone, and complete lysis by incubating the target cells with 2.5% Triton X-100. All determinations were performed in triplicate, and standard deviations were calculated. Specific lysis was calculated as follows: specific lysis (%)=[(observed release-spontaneous release)/(complete release-spontaneous release)]×100. […] Cytotoxic lysis of normal B lymphocytes was also analyzed since low expression of Brachyury was detectable in CD19+ cells isolated from various healthy donors.

T2 cells = type: cell-based, human
Experimental: as §1

HLA-A0201 molecules = target: T1, HLA-A0201 molecules (Homo sapiens, UniProt P04439, D140Y/D185E/D98H/E176V/E277Q/G131W/G231S/I119V/I121R/I166T/I218V/L300P/L318F/N151K/N90K/P208A/P217A/Q86G/Q94H/R138H/R169H/T345S); assay: HLA-A2 binding assay: HLA-A02 surface expression on T2 cells by flow cytometry; details: 25 μM peptide, compared to positive and negative control peptides
T1 construct: the T2 (HLA-A2+) transport-deletion mutant cell line; endogenous in cells; host or cells: T2 (HLA-A2+) TAP-deficient cells
Experimental: Binding of Brachyury-specific peptides T-p1, T-p2, T-p3, and T-p4 (SEQ ID NOs: 1-4) to HLA-A0201 molecules was evaluated by flow cytometry analysis of HLA-A02 surface expression on T2 cells. T2 cells (1×10^6) in serum-free Iscove's modified Dulbecco's medium were incubated in the presence of various concentrations of each peptide, in 24-well culture plates at 37° C. with 5% CO2. After 18 hours in culture, T2 cells were harvested, washed with 1× phosphate buffered saline (PBS) (Invitrogen) and stained with 20 μl of a FITC-conjugated anti-HLA-A02-specific monoclonal antibody (MAb) (One Lambda, Inc., Canoga Park, Calif.). A FITC-conjugated IgG2a MAb (BD Biosciences, San Jose, Calif.) was used as an isotype control. […] Results were expressed as mean fluorescence intensity (MFI) collected on a log scale. […] Assuming first order kinetics, the log2 of MFI/MFI0 (MFI is the fluorescence at each time point and MFI0 the initial fluorescence at time 0) was plotted against time (minutes). The decay rate constant was calculated as the slope of the linear regression for each curve and the half-life of each peptide-MHC complex was calculated as […].
In silico-predicted epitopes were then assessed for binding to the MHC molecules in a cell-based assay. […]

CD8+ T cells = assay: IFN-γ ELISA of peptide-induced CD8+ T cells stimulated with peptide-pulsed autologous DCs; type: cell-based, human; details: healthy donor, DCs pulsed with 25 μM peptide, three IVS, 24 hours stimulation
Text: To generate Brachyury-specific cytotoxic T cells (CTLs), peptide-pulsed irradiated (30 Gy) DCs were used as antigen presenting cells (APCs) with autologous, non-adherent cells used as effector cells at an effector-to-APC ratio of 10:1. Cultures were maintained for three initial days in medium containing 10% human AB serum, and four additional days in the same medium supplemented with 20 U/ml of recombinant human IL-2. After a seven-day culture period, designated as an in vitro stimulation (IVS) cycle, cells were re-stimulated as described above.
After three IVS cycles, CD8+ T cells that were negatively isolated by using a CD8+ isolation kit (Miltenyi Biotec, Auburn, Calif.) were stimulated for 24 hours in the presence of peptide-pulsed autologous DCs. Culture supernatants were analyzed for the presence of IFN-γ by using an enzyme linked immunosorbant assay (ELISA) kit (Biosource International Inc., Camarillo, Calif.). Results were expressed in pg/ml.
Irradiated DCs pulsed with 25 μM of each peptide were used to stimulate autologous T cells from a healthy donor's PBMCs. […] Cytotoxic lysis of normal B lymphocytes was also analyzed since low expression of Brachyury was detectable in CD19+ cells isolated from various healthy donors.

Row | Compound | Cytotoxic lysis of normal B lymphocytes [1] | Lowest peptide concentration showing cytotoxic responses of T-p2 CTLs (T2 cells) [nM] | Binding to HLA-A02 molecules (cell surface MHC stabilization, MFI) (HLA-A0201 molecules) | Induction of antigen-specific CTLs releasing IFN-γ upon stimulation with the specific peptide (CD8+ T cells)
1 | CC(C)C[C@H](NC(=O)[C@@H](NC(=O)[C@H](CO)NC(=O)[C@@H](NC(=O)CNC(=O)[C@@H]1CCCN1C(=O)[C@H](CC(C)C)NC(=O)[C@H](CC(C)C)NC(=O)[C@@H](N)Cc1c[nH]c2ccccc12)[C@@H](C)O)[C@@H](C)O)C(=O)O [T-p2, WLLPGTSTL] (H-WLLPGTSTL-OH; N-terminus and C-terminus assumed) | No lysis was observed | 1 | – | –
2 | AMYSFLLDFV (listed as Homo sapiens) [T-p4] | – | – | highest binding to T2 cells | –
3 | RLIASWTPV (listed as Homo sapiens) [T-p3] | – | – | highest binding to T2 cells | induced antigen-specific CTLs able to release IFN-γ

Source: patent publication US8613933B2, “Brachyury polypeptides and methods for use” (The United States of America, as represented by the …, priority 2007, dated 2013)
